The record followed here is patent publication US10975056B2 (GlaxoSmithKline Intellectual Property Development Limited, priority 2016, dated 2021).

“And” between values parts separate entries of the source, which are not always exact repeats. Equal entries are not always repeated. Structures can show the parent of a compound that is named as a salt. Where two headings read alike, the source gives them in different places. A value given as a limit tells only on which side of the number the result lay.

This assay has as its target DNMT1 (Homo sapiens, UniProt P26358). Put plainly: DNMT1 biochemical activity, breaklight assay and/or SPA assay. Here is the method: DNMT1 breaklight in vitro assays were conducted in a total volume of 50 μl in a standard 384 well format, using black non-binding surface microplates (Corning 3575). […] Negative control wells used 5 μl of DNMT1 and 5 μl of oligonucleotide but 0 μM SAM. All reagents were made up in 1× assay buffer (20 mM Tris pH 6.8, 25 mM NaCl, 0.5 mM MgCl2, 0.01% Triton X100 and 1 mM DTT). The reaction was incubated at 26° C. for 45 min and then stopped with the addition of 40 μl detection reagent. Detection reagent, made up in 1× Gla assay buffer (20 mM Tris pH 8.0, 80 mM NaCl, 0.75 mM MgCl2, 0.01% Triton X100 and 1 mM DTT) has a final concentration of 100 μM SAH (Sigma #A9384) and 0.0008 units/μl Gla1 restriction endonuclease (Sibenzyme #E494). Following addition of the detection reagent the plate was incubated in the dark at room temperature for 5 hr. Fluorescence intensity was then measured on the PHERAstar FS (BMG Labtech) at Ex 485 nm and Em 520 nm, with a gain of 400 and an integration time of 100 ms.
Biochemical activity of DNMT1 analyzed using SPA technology. Plates (Griener 784075) were pre-stamped with 100 nL/well of compound (11-point, 3-fold serial dilution). […] Low control wells contained 5 μL of buffer instead of enzyme. Following a 40 minute incubation, the reaction was quenched upon the addition of 10 μL of stop mixture containing 1 mM SAM (Sigma A7007) and 2 mg/mL PEI beads (Perkin Elmer RPNQ0098). Plates were sealed, centrifuged for 1 min and then read on a Viewlux (Perkin Elmer) using the 613 nm emission filter/300 s read time following a 30 minute dark adapt. Assay conditions prior to quench consisted of 40 nM DNMT1 (601-1600, produced internally), 100 nM 3H-SAM (American Radiolabeled Chemicals ART 0288), 900 nM SAM (New England BioLabs B9003S) and 200 nM hemi methylated DNA oligonucleotide (synthesized at Integrated DNA Technologies, 5′-[…]-3′) in 50 mM HEPES (pH 8.0), 2 mM MgCl2, 1 mM DTT, 0.01% NP-40 and 0.01% BSA.
Comments • 1. […] Where a field is empty, the compound was not tested in that assay.

[1] abbreviates: binned activity in either the breaklight or the SPA assay, read-out: DNMT1 BioChemical (pIC50 category) (converted).
Where [2] appears, read: binned activity in either the breaklight or the SPA assay.
Where [3] appears, read: breaklight assay and/or SPA assay, repeated experimental runs, read-out: average pIC50 against DNMT1 (converted).

Sequence of DNMT1 (P26358 whole entry, looked up): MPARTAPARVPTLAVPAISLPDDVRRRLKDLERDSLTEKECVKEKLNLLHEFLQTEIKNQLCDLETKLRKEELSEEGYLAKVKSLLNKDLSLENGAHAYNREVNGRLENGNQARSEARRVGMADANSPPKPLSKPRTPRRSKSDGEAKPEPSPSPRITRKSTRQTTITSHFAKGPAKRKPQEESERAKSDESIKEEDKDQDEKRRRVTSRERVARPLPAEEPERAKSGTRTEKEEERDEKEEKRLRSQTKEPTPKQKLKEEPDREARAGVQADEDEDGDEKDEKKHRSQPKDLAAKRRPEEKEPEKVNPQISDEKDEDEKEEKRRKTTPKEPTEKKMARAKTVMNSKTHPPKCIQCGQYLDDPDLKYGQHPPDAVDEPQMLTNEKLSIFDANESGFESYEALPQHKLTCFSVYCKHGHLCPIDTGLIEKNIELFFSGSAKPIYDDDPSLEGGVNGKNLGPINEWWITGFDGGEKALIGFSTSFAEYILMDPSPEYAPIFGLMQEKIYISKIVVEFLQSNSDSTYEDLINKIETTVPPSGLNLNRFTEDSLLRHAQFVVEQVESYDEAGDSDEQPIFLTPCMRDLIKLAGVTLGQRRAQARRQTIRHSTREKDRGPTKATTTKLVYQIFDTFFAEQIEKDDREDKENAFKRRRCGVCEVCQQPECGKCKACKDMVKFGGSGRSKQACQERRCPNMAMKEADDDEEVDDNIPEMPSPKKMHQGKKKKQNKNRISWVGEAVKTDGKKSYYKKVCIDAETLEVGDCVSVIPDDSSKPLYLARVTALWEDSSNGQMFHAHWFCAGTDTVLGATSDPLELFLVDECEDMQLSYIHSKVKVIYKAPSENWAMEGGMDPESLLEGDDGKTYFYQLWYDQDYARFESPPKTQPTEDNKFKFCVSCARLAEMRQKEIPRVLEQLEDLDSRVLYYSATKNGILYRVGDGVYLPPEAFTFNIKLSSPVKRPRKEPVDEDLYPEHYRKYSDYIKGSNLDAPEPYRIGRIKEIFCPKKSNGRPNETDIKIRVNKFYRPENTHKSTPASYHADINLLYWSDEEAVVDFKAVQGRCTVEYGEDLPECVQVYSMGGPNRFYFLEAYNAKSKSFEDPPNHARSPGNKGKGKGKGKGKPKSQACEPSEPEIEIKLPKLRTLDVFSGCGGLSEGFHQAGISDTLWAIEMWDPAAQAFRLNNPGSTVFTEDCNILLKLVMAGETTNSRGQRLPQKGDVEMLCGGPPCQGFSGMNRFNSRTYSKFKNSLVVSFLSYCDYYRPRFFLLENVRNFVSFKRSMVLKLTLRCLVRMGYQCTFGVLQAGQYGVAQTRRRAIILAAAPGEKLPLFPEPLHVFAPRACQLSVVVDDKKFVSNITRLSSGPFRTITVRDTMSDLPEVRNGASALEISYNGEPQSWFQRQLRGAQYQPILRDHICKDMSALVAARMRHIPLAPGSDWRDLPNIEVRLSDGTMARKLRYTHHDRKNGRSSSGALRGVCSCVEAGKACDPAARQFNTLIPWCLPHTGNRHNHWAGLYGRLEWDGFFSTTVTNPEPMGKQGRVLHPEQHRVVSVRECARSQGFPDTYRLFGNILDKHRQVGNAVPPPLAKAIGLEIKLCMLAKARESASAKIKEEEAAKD

For the molecule `N#Cc1c(SC(C(N)=O)c2ccccc2)nc(N2CCCN(CCO)CC2)c(C#N)c1CC(F)(F)F` (stereo not shown) [Example 113, 2-({3,5-Dicyano-6-[4-(2-hydroxyethyl)-1,4-diazepan-1-yl]-4-(2,2,2-trifluoroethyl)pyridin-2-yl}sulfanyl)-2-phenylacetamide], the IC50 under setting [1] is 316 to 1000 nM.
For the molecule `CCc1c(C#N)c(S[C@H](C(N)=O)c2ccccc2)nc(N(C)[C@@H]2CCOC2)c1C#N` [Example 502, (S)-2-(3,5-dicyano-4-ethyl-6-(methyl((R)-tetrahydrofuran-3-yl)amino)pyridin-2-ylthio)-2-phenylacetamide], the “DNMT1 BioChemical (pIC50 category)” value under setting [2] is recorded as “D (Category D: ≥6.5)”.
The same measure, in the same setting: to `CCc1c(C#N)c(S[C@@H](C(N)=O)c2ccccc2)nc(N(C)[C@@H]2CCOC2)c1C#N` [Example 501, (R)-2-(3,5-dicyano-4-ethyl-6-(methyl((R)-tetrahydrofuran-3-yl)amino)pyridin-2-ylthio)-2-phenylacetamide] belongs “D (Category D: ≥6.5)”.
Regarding `CCc1c(C#N)c(SC(C(N)=O)c2ccccc2)nc(N2CCC(NCC3(C)CC3)CC2)c1C#N` (stereo not shown) [Example 473, 2-((3,5-dicyano-4-ethyl-6-(4-(((1-methylcyclopropyl)methyl)amino)piperidin-1-yl)pyridin-2-yl)thio)-2-phenylacetamide], the “DNMT1 BioChemical (pIC50 category)” value under setting [2] is recorded as “D (Category D: ≥6.5)”.
Same read-out and setting: to `CCc1c(C#N)c(SC(C(N)=O)c2ccccc2)nc(N2CCC(C3CCN(CCO)CC3)CC2)c1C#N` (stereo not shown) [Example 60, 2-((3,5-dicyano-4-ethyl-6-(1′-(2-hydroxyethyl)-[4,4′-bipiperidin]-1-yl)pyridin-2-yl)thio)-2-phenylacetamide] belongs “D (Category D: ≥6.5)”; to `CCc1c(C#N)c(SC(C(N)=O)c2ccccc2)nc(N2CCC(NCCOC)CC2)c1C#N` (stereo not shown) [Example 553, 2-((3,5-dicyano-4-ethyl-6-(4-((2-methoxyethyl)amino)piperidin-1-yl)pyridin-2-yl)thio)-2-phenylacetamide], “D (Category D: ≥6.5)”.
`CCc1c(C#N)c(S[C@@H](C(N)=O)c2ccccc2)nc(N(C)CCOP(=O)(O)O)c1C#N` [Example 421, (R)-2-((6-((2-amino-2-oxo-1-phenylethyl)thio)-3,5-dicyano-4-ethylpyridin-2-yl(methyl)amino)ethyldihydroden phosphate]: the IC50 under setting [1] was 1000 to 31600 nM.
`CCc1c(C#N)c(SCc2ccc(N(C)S(C)(=O)=O)cc2)nc(N2CC[C@@H](CNC(=O)CN)C2)c1C#N` [Example 672, (S)-2-amino-N-((1-(3,5-dicyano-4-ethyl-6-((4-(N-methylmethylsulfonamido)benzyl)thio)pyridin-2-yl)pyrrolidin-3-yl)methyl)acetamide]: the “DNMT1 BioChemical (pIC50 category)” value under setting [2] is given as “D (Category D: ≥6.5)”.
`CCc1c(C#N)c(SC(C(N)=O)c2ccccc2)nc(N2CC[C@@]3(CCCN3S(C)(=O)=O)[C@@H](O)C2)c1C#N` (stereo partly drawn) [Example 132, 2-((3,5-Dicyano-4-ethyl-6-((5S,6S)-6-hydroxy-1-(methylsulfonyl)-1,8-diazaspiro[4.5]decan-8-yl)pyridin-2-yl)thio)-2-phenylacetamide]: the IC50 by setting is: under setting [1], 316 to 1000 nM; under setting [3], 316 to 1000 nM.
In the case of `CCc1c(C#N)c(S[C@@H](C(N)=O)c2ccccc2)nc(N2CC[C@@H](N)[C@@H](O)C2)c1C#N` [Example 514, (R)-2-((6-((3S,4R)-4-amino-3-hydroxypiperidin-1-yl)-3,5-dicyano-4-ethylpyridin-2-yl)thio)-2-phenylacetamide, Trifluoroacetic acid salt], the IC50 (DNMT1 BioChemical (pIC50 category), binned activity in either the breaklight or the SPA assay) was < 316 nM.
With `CCc1c(C#N)c(S[C@H](C(N)=O)c2ccccc2)nc(N2CCC(C)(N)CC2)c1C#N` (single isomer, unassigned) [Example 617, 2-((6-(4-amino-4-methylpiperidin-1-yl)-3,5-dicyano-4-ethylpyridin-2-yl)thio)-2-phenylacetamide], the IC50 under setting [1] was 1000 to 31600 nM; the IC50 under setting [3] is ≥ 1000 nM and 2510 nM.
In the case of `CCc1c(C#N)c(SC(C(N)=O)c2ccccc2)nc(N2CCCN(CC(O)CO)CC2)c1C#N` (stereo not shown) [Example 678, 2-((3,5-dicyano-6-(4-(2,3-dihydroxypropyl)-1,4-diazepan-1-yl)-4-ethylpyridin-2-yl)thio)-2-phenylacetamide], under setting [2], the “DNMT1 BioChemical (pIC50 category)” value is “D (Category D: ≥6.5)”.
The same measure, in the same setting: to `CCc1c(C#N)c(SC(C(N)=O)c2ccc(F)cc2)nc(N2CCC(N(C)C3CCC3)CC2)c1C#N` (stereo not shown) [Example 432, 2-((3,5-Dicyano-6-(4-(cyclobutyl(methyl)amino)piperidin-1-yl)-4-ethylpyridin-2-yl)thio)-2-(4-fluorophenyl)acetamide] belongs “D (Category D: ≥6.5)”.
With `CCc1c(C#N)c(SC(C(N)=O)c2ccccc2)nc(N2CCN(C(=O)c3ccccc3)CC2)c1C#N` (stereo not shown) [Example 131, 2-((6-(4-Benzoylpiperazin-1-yl)-3,5-dicyano-4-ethylpyridin-2-yl)thio)-2-phenylacetamide], the IC50 under setting [1] is 316 to 1000 nM and the IC50 under setting [3] was 316 to 1000 nM.
As to `COc1c(C#N)c(SC(C(N)=O)c2ccccc2)nc(N2CC[C@H](O)C2)c1C#N` (stereo partly drawn) [Example 696, 2-((3,5-dicyano-6-((S)-3-hydroxypyrrolidin-1-yl)-4-methoxypyridin-2-yl)thio)-2-phenylacetamide], under setting [2], the “DNMT1 BioChemical (pIC50 category)” value was “D (Category D: ≥6.5)”.
With `CCc1c(C#N)c(SC(C(N)=O)c2ccccc2)nc(N2CCN(CCN3CCCC3)CC2)c1C#N` (stereo not shown) [Example 304, 2-((3,5-Dicyano-4-ethyl-6-(4-(2-(pyrrolidin-1-yl)ethyl)piperazin-1-yl)pyridin-2-yl)thio)-2-phenylacetamide], the IC50 under setting [1] is 316 to 1000 nM.
